Test results published in ChEMBL document CHEMBL3507680, “University of Dundee, Gates Library screen for HepG2 cell viability”.

Assay: Human HepG2 cell viability assay in 384 well format
Type: toxicity, cell-based
Design: dose 125 nL, time 70.5 hour; cytotoxicity at 70.5 h: concentration not given beside the values
Settings: HepG2 cells, read-out: Inhibition

Compound | cytotoxicity at 70.5 h [%]
Cc1ccc(-n2cc(S(=O)(=O)Nc3cccc(C(=O)O)c3C)cn2)cc1 | -12.2
Cc1n[nH]c(C)c1NC(=O)C1CCCN(C(=O)NCC(C)C)C1 (stereo not given) | -5.82
CC(C)N(CC(N)=O)C(=O)c1cc(F)ccc1N1CCN(C)CC1 | -5.36
CCC(=O)N(CCC(=O)O)Cc1ccc(F)c(F)c1 | -7.91
CC(=O)c1ccc(NC(=O)C(NC(=O)Nc2ccccc2)C(C)C)cc1 (stereo not given) | -10.8
Cc1ccc(F)c2c1CCCN2C(=O)c1cn(CC(=O)N(C)C)nn1 | -7.17
COCCN(CC(C)C)C(=O)c1cccc(Nc2cnccn2)c1 | -13.9
COCCCC(=O)N(CCC(=O)O)Cc1ccc(F)c(F)c1 | -12.3
COc1ccccc1NCC(=O)NCc1cc[nH]n1 | 26.9
COc1ncnc(N)c1CNCC(C)Oc1ccccc1Cl (stereo not given) | -3.69
COc1ccc(CNC(=O)CNc2ccccc2OC)cc1 | 2.91
CCn1cnnc1CNC(=O)C1COc2ccc(Cl)cc2C1 (stereo not given) | -3.41
CCCC(C(=O)NC1CCN(S(C)(=O)=O)CC1)c1ccccc1 (stereo not given) | -4.97
O=C(NCC(=O)N1CC2(CCCC2)c2c(F)cccc21)C1CC1 | 0.771
CCCc1cc(N2CCCC2Cn2nc(C)cc2C)n2ncnc2n1 (stereo not given) | -5.55
CCCc1cc(N2CCCCC2Cn2cc(C)cn2)n2ncnc2n1 (stereo not given) | -6.83
COc1cccc(F)c1C(C)NC(=O)NCCc1ccc(C)nc1 (stereo not given) | 29.6
COC(=O)c1ccc(N2CCC(N(C)c3ccccc3)CC2)nn1 | 3.35
CCOc1cccc(COC(=O)c2ccc(Cl)cn2)n1 | -8.76
CCOc1cccc(COC(=O)c2cc(Cl)ccn2)n1 | 25.2
CCOc1cccc(COC(=O)c2scnc2C)n1 | 5.38
O=S(=O)(c1ccc(Cl)cc1)N1CCC(OCc2ccccn2)C1 (stereo not given) | 2.04

Compound | cytotoxicity at 70.5 h [%]
N#Cc1cccc(S(=O)(=O)CCN2CCOC2=O)c1 | -8.07
CC(C)Cc1nc(CNCc2cccc(N3CCCC3=O)c2)no1 | -20.4
CN(Cc1ccncc1)C(CO)c1cccc(F)c1 (stereo not given) | -27.2
CC(C)c1nsc(N2CCC(OCCN3CCOCC3)CC2)n1 | -22.2
CC(NC1CCN(CC(=O)N(C)C)CC1)c1cnn(C(C)C)c1 (stereo not given) | -14.3
CC(NC1CCN(CCc2ccncc2)CC1)c1cnn(C(C)C)c1 (stereo not given) | -18
CN(Cc1ccccn1)C(CO)c1cccc(Br)c1 (stereo not given) | -1.08
CC(Cn1cccn1)NCC(=O)N(C)Cc1ccsc1 (stereo not given) | 35.4
CC(C)(C)c1ncc(CNc2ccccc2SCCC(N)=O)s1 | 3.11
Cc1oc(-c2ccccc2)nc1CN1CCC(c2ccnn2C)CC1 | -78.8
Cc1ccc(C(NCC(=O)N2CCNC(=O)C2)c2ccccc2)cc1 (stereo not given) | -104
Cc1cc(N2CCc3cnc(C)nc3C2)n2nc(C(F)(F)F)nc2n1 | -108
Cc1noc(C)c1CS(=O)(=O)C(C)C(=O)N(C)c1ccccc1 (stereo not given) | -111
O=C(CN(CC(O)c1ccc(F)cc1)C1CC1)NC(C1CC1)C1CC1 (stereo not given) | -90.6
Cc1ccc(N2CCC(C(=O)NC3CCc4nccn4C3)CC2)nc1 (stereo not given) | -90.5
CCc1nn(C)c2[nH]nc(NC(=O)c3cccnc3OC)c12 | -112
COc1ccc(C(N)=O)cc1NCc1ncc(-c2cccs2)o1 | -14
NC(=O)N1CCC(C(=O)NC2CCc3nccn3C2)CC1 (stereo not given) | -110
COc1ccc(C(N)=O)cc1NCc1nc(-c2cccs2)oc1C | -102
COc1ccc(NC(=O)c2ccccc2NCc2ncnn2C)cc1 | -19.9
CNC(=O)NC(C)c1c(F)cccc1Cl (stereo not given) | -107
Cc1ccc(CNc2ccccc2SCCC(N)=O)s1 | -99.2

Compound | cytotoxicity at 70.5 h [%]
CC(C)n1cnnc1C1CCCN(S(=O)(=O)CCCF)C1 (stereo not given) | -93.6
Cc1cc(NC(=O)N2CCCC2C(=O)NC2CC2)c2ncccc2c1 (stereo not given) | -98
Cc1cc(NC(=O)N2CCCC2C(C)(C)O)c2ncccc2c1 (stereo not given) | -75.7
CCOc1ccc(NC(C)c2nnnn2-c2ccccc2)cc1CO (stereo not given) | -66.6
COCC(O)CN(C)C(=O)NCc1ccc(-c2ccn[nH]2)cc1 (stereo not given) | -85.9
CS(=O)(=O)CCN(CCCO)C1CCc2ccccc21 (stereo not given) | -98.4
CCS(=O)(=O)NCCN(CCO)C1CCc2ccccc21 (stereo not given) | -58.4
O=C1CN(C(=O)CNC(CC(F)(F)F)c2ccc(F)cc2)CCN1 (stereo not given) | -55.7
COCCC(=O)Nc1ccnn1-c1ccccc1 | 1.36
CC(=O)NCCc1ccc(S(=O)(=O)Nc2ccc(C)c(F)c2)s1 | -5.64
CC(C)c1ncc(Cl)c(C(=O)N2CCN(C3CCCC3)CC2)n1 | -3.22
CC1(c2ccc(Br)cc2)CC(=O)N(CCC#N)C1=O (stereo not given) | 32.5
O=C(Nc1ccccc1N1CCOC1=O)N1CCc2sccc2C1 | -8.21
OCCN1CCN(CC(O)c2ccc(C(F)(F)F)cc2)CC1 (stereo not given) | 33.3
COc1cc(CSc2nnc(N)n2C2CC2)ccc1SC | -5.1
CC1(c2ccc(Br)cc2)CC(=O)N(CC(N)=O)C1=O (stereo not given) | 32.3
CCC(NC(=O)CNC(=O)OC)c1cc(F)ccc1F (stereo not given) | -2.42
COCCNC(=O)Cn1cc(NC(=O)c2cccc(Cl)c2Cl)cn1 | -1.6
COCC(=O)Nc1ccnn1-c1ccc(Cl)cc1 | 3.64
Cc1cc(C)cc(CNc2ccc(C(=O)NC(C)CO)cc2)c1 (stereo not given) | -1.12
CSCc1cc(C(=O)NC2(C#N)CC2)ccc1F | -0.691
CCc1nc(C(=O)N2CC(C(C)C)Nc3ccccc32)c[nH]1 (stereo not given) | -7.98

Compound | cytotoxicity at 70.5 h [%]
CCc1nc(C(=O)N2CC(C)CN(C)c3ccccc32)c[nH]1 (stereo not given) | -2.27
Cc1nc(CNC(=O)Nc2cc(F)ccc2OC(F)F)no1 | -3.38
CC1CN(C)c2ccccc2N(C(=O)c2c[nH]c(C(C)C)n2)C1 (stereo not given) | 31.3
Cc1ncccc1C(=O)Nc1cccc(OCC(F)F)n1 | -8.26
CC(=O)N1CCC[C@H]1C(=O)NCCCN(C(C)C)S(C)(=O)=O | -6.32
CC(C)N(CCCNC(=O)C1CC(=O)N(C)C1)S(C)(=O)=O (stereo not given) | 33.7
CN(Cc1nnn(CC2CC2)n1)C(=O)c1ccccc1 | 32.1
FC(F)(F)COc1ccc(CSCc2ccon2)cn1 | -8.78
CCN(C(=O)Nc1nccs1)C(C)c1cccc(O)c1 (stereo not given) | -9.8
Cn1cc(CNCCNc2ncc(Cl)cc2Cl)cn1 | -4.79
COc1c(C)cnc(CN2CCCC2c2noc(C3CC3)n2)c1C (stereo not given) | 1.14
COC(=O)c1ccc(Cn2cnc(C#N)n2)cc1 | -12
NCc1cccc(NC(=O)CCN2CCOCC2)c1 | -9.57
CSCCC(NC(=O)c1ccco1)C(=O)N(C)Cc1ccsc1 (stereo not given) | -4.71
COc1ccc(CCN(C)C(=O)c2cc(C(C)=O)c[nH]2)cc1OC | -11.9
O=C(CCN1CCOCC1)Nc1cccc(CNCc2ccsc2)c1 | 14.1
Cc1n[nH]c(C)c1NC(=O)NCc1cc[nH]n1 | -12.5
COc1ccc(CCCN(C)C(=O)c2cc(Cl)c[nH]2)cc1OC | -10.5
CS(=O)(=O)NCC1CCCN(Cc2ccccc2F)C1 (stereo not given) | -7.12
